In ChEMBL document CHEMBL3885881, “DrugMatrix”:

Organism: Rattus norvegicus
Experiment: DrugMatrix - Regimen: Daily Repeat
Format: toxicity, organism-based, Sprague-Dawley
Design: regimen Daily Repeat, gender Male, age 6-8 weeks
Details: in vivo, po, route oral GAVAGE, vehicle 100 % WATER; for ABSOLUTE BASOPHIL / ABSOLUTE EOSINOPHIL / ABSOLUTE LYMPHOCYTE / ABSOLUTE MONOCYTE / ABSOLUTE SEGMENTED NEUTROPHIL / BASOPHIL / EOSINOPHIL / ERYTHROCYTE COUNT / HEMATOCRIT / HEMOGLOBIN / LEUKOCYTE COUNT / LYMPHOCYTE / MEAN CORPUSCULAR HEMOGLOBIN / MEAN CORPUSCULAR HEMOGLOBIN CONCENTRATION / MEAN CORPUSCULAR VOLUME / MONOCYTE / NEUTROPHIL / NUCLEATED RED BLOOD CELLS / PLATELET COUNT: tissue Blood; for ALANINE AMINOTRANSFERASE / ALBUMIN / ALKALINE PHOSPHATASE / ASPARTATE AMINOTRANSFERASE / BLOOD UREA NITROGEN / CARBON DIOXIDE / CHLORIDE / CHOLESTEROL / CREATINE PHOSPHOKINASE / CREATININE / GLUCOSE / LACTATE DEHYDROGENASE / LIPASE / PHOSPHORUS / POTASSIUM / SODIUM / TOTAL BILIRUBIN / TOTAL PROTEIN / URIC ACID: tissue Plasma
[1] = 0 mg/kg, 72 h, dose level Control, time 3 day
[2] = 0 mg/kg, 120 h, dose level Control, time 5 day
[3] = 100 mg/kg, 72 h, dose level Low, time 3 day

**Q.** What does the source list for NCC1(CC(=O)O)CCCCC1 [GABAPENTIN]?
**A.** ABSOLUTE BASOPHIL [1]: 0 CELLS/uL; ABSOLUTE EOSINOPHIL [1]: 133.83 CELLS/uL; ABSOLUTE LYMPHOCYTE [1]: 11674.67 CELLS/uL; ABSOLUTE MONOCYTE [1]: 65.33 CELLS/uL; ABSOLUTE SEGMENTED NEUTROPHIL [1]: 1559.5 CELLS/uL; BASOPHIL [1]: 0%; EOSINOPHIL [1]: 1%; ERYTHROCYTE COUNT [1]: 5.26 x10E6/uL; HEMATOCRIT [1]: 34.15%; HEMOGLOBIN [1]: 13.6 G/DL; LEUKOCYTE COUNT [1]: 13.43 x10E3/uL; LYMPHOCYTE [1]: 86.83%; MEAN CORPUSCULAR HEMOGLOBIN [1]: 25.87 pg; MEAN CORPUSCULAR HEMOGLOBIN CONCENTRATION [1]: 39.85 G/DL; MEAN CORPUSCULAR VOLUME [1]: 64.93 fL; MONOCYTE [1]: 0.5%; NEUTROPHIL [1]: 11.67%; NUCLEATED RED BLOOD CELLS [1]: 0.17 /100WBC; PLATELET COUNT [1]: 1188.5 x10E3/uL; ALANINE AMINOTRANSFERASE [1]: 48.5 u/L; ALBUMIN [1]: 4.1 G/DL; ALKALINE PHOSPHATASE [1]: 338.83 u/L; ASPARTATE AMINOTRANSFERASE [1]: 84.17 u/L; BLOOD UREA NITROGEN [1]: 15.17 mg/dL; CARBON DIOXIDE [1]: 26.83 mmol/L; CHLORIDE [1]: 101.33 MEQ/L; CHOLESTEROL [1]: 77 mg/dL; CREATINE PHOSPHOKINASE [1]: 600.83 u/L; CREATININE [1]: 0.15 mg/dL; GLUCOSE [1]: 161.67 mg/dL; LACTATE DEHYDROGENASE [1]: 222.17 u/L; LIPASE [1]: 10.17 u/L; PHOSPHORUS [1]: 12.63 mg/dL; POTASSIUM [1]: 6.36 MEQ/L; SODIUM [1]: 143.17 MEQ/L; TOTAL BILIRUBIN [1]: 0.17 mg/dL; TOTAL PROTEIN [1]: 5.65 G/DL; URIC ACID [1]: 1.38 mg/dL; ABSOLUTE BASOPHIL [2]: 0 CELLS/uL; ABSOLUTE EOSINOPHIL [2]: 66.5 CELLS/uL; ABSOLUTE LYMPHOCYTE [2]: 10848.67 CELLS/uL; ABSOLUTE MONOCYTE [2]: 106.17 CELLS/uL; ABSOLUTE SEGMENTED NEUTROPHIL [2]: 1028.67 CELLS/uL; BASOPHIL [2]: 0%; EOSINOPHIL [2]: 0.5%; ERYTHROCYTE COUNT [2]: 5.42 x10E6/uL; HEMATOCRIT [2]: 34.53%; HEMOGLOBIN [2]: 14.07 G/DL; LEUKOCYTE COUNT [2]: 12.05 x10E3/uL; LYMPHOCYTE [2]: 90%; MEAN CORPUSCULAR HEMOGLOBIN [2]: 25.98 pg; MEAN CORPUSCULAR HEMOGLOBIN CONCENTRATION [2]: 40.73 G/DL; MEAN CORPUSCULAR VOLUME [2]: 63.78 fL; MONOCYTE [2]: 1%; NEUTROPHIL [2]: 8.5%; NUCLEATED RED BLOOD CELLS [2]: 0 /100WBC; PLATELET COUNT [2]: 1256.33 x10E3/uL; ALANINE AMINOTRANSFERASE [2]: 55.17 u/L; ALBUMIN [2]: 4.3 G/DL; ALKALINE PHOSPHATASE [2]: 333.83 u/L; ASPARTATE AMINOTRANSFERASE [2]: 81.33 u/L; BLOOD UREA NITROGEN [2]: 15.67 mg/dL; CARBON DIOXIDE [2]: 30 mmol/L; CHLORIDE [2]: 100.67 MEQ/L; CHOLESTEROL [2]: 67.67 mg/dL; CREATINE PHOSPHOKINASE [2]: 221.33 u/L; CREATININE [2]: 0.16 mg/dL; GLUCOSE [2]: 161.33 mg/dL; LACTATE DEHYDROGENASE [2]: 166.83 u/L; LIPASE [2]: 8.33 u/L; PHOSPHORUS [2]: 12.63 mg/dL; POTASSIUM [2]: 5.98 MEQ/L; SODIUM [2]: 144.63 MEQ/L; TOTAL BILIRUBIN [2]: 0.2 mg/dL; TOTAL PROTEIN [2]: 6.15 G/DL; URIC ACID [2]: 1.17 mg/dL; ABSOLUTE BASOPHIL [3]: 0 CELLS/uL; ABSOLUTE EOSINOPHIL [3]: 86.33 CELLS/uL; ABSOLUTE LYMPHOCYTE [3]: 13178.33 CELLS/uL; ABSOLUTE MONOCYTE [3]: 43 CELLS/uL; ABSOLUTE SEGMENTED NEUTROPHIL [3]: 1125.67 CELLS/uL; BASOPHIL [3]: 0%; EOSINOPHIL [3]: 0.67%; ERYTHROCYTE COUNT [3]: 5.28 x10E6/uL; HEMATOCRIT [3]: 34.3%; HEMOGLOBIN [3]: 13.73 G/DL; LEUKOCYTE COUNT [3]: 14.43 x10E3/uL; LYMPHOCYTE [3]: 91%; MEAN CORPUSCULAR HEMOGLOBIN [3]: 26.1 pg; MEAN CORPUSCULAR HEMOGLOBIN CONCENTRATION [3]: 40.1 G/DL; MEAN CORPUSCULAR VOLUME [3]: 65 fL; MONOCYTE [3]: 0.33%; NEUTROPHIL [3]: 8%; NUCLEATED RED BLOOD CELLS [3]: 0 /100WBC; PLATELET COUNT [3]: 1169.33 x10E3/uL; ALANINE AMINOTRANSFERASE [3]: 52.33 u/L; ALBUMIN [3]: 4.17 G/DL; ALKALINE PHOSPHATASE [3]: 377.67 u/L; ASPARTATE AMINOTRANSFERASE [3]: 80 u/L; BLOOD UREA NITROGEN [3]: 14.33 mg/dL; CARBON DIOXIDE [3]: 27.33 mmol/L; CHLORIDE [3]: 103 MEQ/L; CHOLESTEROL [3]: 71 mg/dL; CREATINE PHOSPHOKINASE [3]: 245 u/L; CREATININE [3]: 0.17 mg/dL; GLUCOSE [3]: 170.67 mg/dL; LACTATE DEHYDROGENASE [3]: 111.67 u/L; LIPASE [3]: 9.67 u/L; PHOSPHORUS [3]: 11.67 mg/dL; POTASSIUM [3]: 6.11 MEQ/L; SODIUM [3]: 144.87 MEQ/L; TOTAL BILIRUBIN [3]: 0.23 mg/dL; TOTAL PROTEIN [3]: 5.67 G/DL; URIC ACID [3]: 1.6 mg/dL
